Where two headings read alike, the source gives them in different places.
How the values were obtained:
[1] = target: T1, glucocorticoid receptors (Rattus norvegicus, UniProt P06536); assay: Glucocorticoid binding assay (competitive binding with [6,7-3H]triamcinolone acetonide); conditions: displacement of [6,7-3H]triamcinolone acetonide; glucocorticoid receptors from rat brains; 50 mM KH2PO4 pH 7.4, 0° C., 16 hours
T1 sequence (P06536 1-795): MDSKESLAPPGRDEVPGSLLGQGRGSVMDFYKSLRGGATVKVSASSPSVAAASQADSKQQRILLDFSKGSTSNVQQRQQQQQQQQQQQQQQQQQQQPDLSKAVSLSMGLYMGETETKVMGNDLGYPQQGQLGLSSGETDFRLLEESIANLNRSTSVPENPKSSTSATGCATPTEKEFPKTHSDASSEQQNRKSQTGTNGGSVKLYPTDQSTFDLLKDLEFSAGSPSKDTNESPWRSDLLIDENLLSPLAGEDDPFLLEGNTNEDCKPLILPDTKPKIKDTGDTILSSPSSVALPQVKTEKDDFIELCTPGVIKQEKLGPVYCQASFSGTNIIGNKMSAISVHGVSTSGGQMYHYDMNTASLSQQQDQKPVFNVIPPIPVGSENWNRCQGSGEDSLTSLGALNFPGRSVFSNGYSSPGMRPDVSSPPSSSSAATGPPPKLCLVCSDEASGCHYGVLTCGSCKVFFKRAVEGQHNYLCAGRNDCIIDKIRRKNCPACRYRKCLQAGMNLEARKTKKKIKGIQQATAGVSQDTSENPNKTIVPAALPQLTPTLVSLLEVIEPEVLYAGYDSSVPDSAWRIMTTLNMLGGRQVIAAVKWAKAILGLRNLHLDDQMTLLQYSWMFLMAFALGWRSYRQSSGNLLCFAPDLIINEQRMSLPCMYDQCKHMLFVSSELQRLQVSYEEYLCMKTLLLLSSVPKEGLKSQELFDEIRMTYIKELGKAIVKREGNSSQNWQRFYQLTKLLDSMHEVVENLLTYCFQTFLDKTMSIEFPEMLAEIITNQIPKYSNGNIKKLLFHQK
Experimental: The assay was used to determine whether the tested compounds bound to the glucocorticoid binding site and is based on procedures set forth in the literature. […] Int. […] Briefly, using competitive binding of with the radioligand “[6,7-^3H]triamcinolone acetonide” (30-50 Cl/mmol), reactions were carried out in 50 mM KH2PO4 (pH 7.4) containing 10 mM sodium molybdate and 10 mM α-monothioglycerol at 0° C. for 16 hours. The glucocorticoid receptors were obtained from rat brains. The reactions were terminated by rapid vacuum filtration onto glass fiber filters. Radioactively trapped onto the filters is determined and compared to control values. […] A higher IC50 value reflects a weaker binding affinity.

| IC50 [1] [nM] | stability of the drug (pH 7.4) | Compound | also measured |
| --- | --- | --- | --- |
| 3.93 |  | COCCOCCOCCOCCOCCOCCOCCOC(=O)NN=C1C=C2CCC3C(C(O)CC4(C)C3CCC4(O)C(=O)CO)C2(C)CC1 (centres unmarked) [mPEG7-Hydrocortisone] |  |
|  | much more stable than cortisone | C[C@]12CCC(=O)C=C1CC[C@@H]1[C@@H]2[C@@H](O)C[C@@]2(C)[C@H]1CC[C@]2(O)C(=O)CO [Hydrocortisone] |  |
|  | many decomposed impurities | C[C@]12CCC(=O)C=C1CC[C@@H]1[C@@H]2C(=O)C[C@@]2(C)[C@H]1CC[C@]2(O)C(=O)CO [Cortisone] | stability of the drug (pH 5.5): stable |

Continued, compound first:

| Compound | IC50 [1] [nM] | stability of the drug (pH 7.4) | also measured |
| --- | --- | --- | --- |
| COCCOCCOCCOCCOCCOCCOCCOC(=O)NN=C1C=C2CCC3C(C(=O)CC4(C)C3CCC4(O)C(=O)CO)C2(C)CC1 (centres unmarked) [mPEG7-Cortisone] | 3440 |  | cortisone release from the conjugate (hydrolysis) (pH 5.5): able to release cortisone clearly; cortisone release from the conjugate (hydrolysis) (pH 7.4): much slower than that at pH 5.5 |
| CC1(C)O[C@@H]2C[C@H]3[C@@H]4CCC5=CC(=O)C=C[C@]5(C)[C@@]4(F)[C@@H](O)C[C@]3(C)[C@]2(C(=O)CO)O1 [Triamcinolone Acetonide] | 1.21 |  |  |

— patent US11464788B2, “Oligomer-corticosteroid conjugates” (Nektar Therapeutics, priority 2007, dated 2022)
